# Tests used:
# Assay in all cases: relative viability (nuclei count vs DMSO), 5 days (fraction); higher = more cells survive
# [1] = compound: C=CCNC1=C2C[C@@H](C)C[C@H](OC)[C@H](O)[C@@H](C)/C=C(\C)[C@H](OC(N)=O)[C@@H](OC)/C=C\C=C(/C)C(=O)NC(=CC1=O)C2=O [17-AAG] + O=C(c1cc(Cc2n[nH]c(=O)c3ccccc23)ccc1F)N1CCN(C(=O)C2CC2)CC1 [Olaparib] (partner 8 µM)
# Method in brief: (§1)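 Lung cancer cell lines were seeded in 1536-well plates and dosed by pin tool the next day, with either a single drug or a fixed anchor-drug dose combined with five library-drug doses (not always all listed) spaced in √10 steps. Five days later, one step fixed the cells and stained their nuclei (final 0.05% Triton X-100, 1% formaldehyde, 1 ug/ml Hoechst), and nuclei were counted on 4× images. Relative viability is the nuclei count in treated wells divided by the count in vehicle wells, and each value is the median of duplicate plates.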
# [2] = compound: C=CCNC1=C2C[C@@H](C)C[C@H](OC)[C@H](O)[C@@H](C)/C=C(\C)[C@H](OC(N)=O)[C@@H](OC)/C=C\C=C(/C)C(=O)NC(=CC1=O)C2=O [17-AAG] + Cc1nc(NC(=O)N2CCC[C@H]2C(N)=O)sc1-c1ccnc(C(C)(C)C(F)(F)F)c1 [Alpelisib] (partner 2 µM)
# Method in brief: as §1
# [3] = compound: C=CCNC1=C2C[C@@H](C)C[C@H](OC)[C@H](O)[C@@H](C)/C=C(\C)[C@H](OC(N)=O)[C@@H](OC)/C=C\C=C(/C)C(=O)NC(=CC1=O)C2=O [17-AAG] + Nc1nc2[nH]cc(CCc3ccc(C(=O)N[C@@H](CCC(=O)O)C(=O)O)cc3)c2c(=O)[nH]1 [Pemetrexed] (partner 0.2 µM)
# Method in brief: as §1
# [4] = compound: C=CCNC1=C2C[C@@H](C)C[C@H](OC)[C@H](O)[C@@H](C)/C=C(\C)[C@H](OC(N)=O)[C@@H](OC)/C=C\C=C(/C)C(=O)NC(=CC1=O)C2=O [17-AAG] + CC(C)C[C@H](NC(=O)[C@H](Cc1ccccc1)NC(=O)c1cnccn1)B(O)O [Bortezomib] (partner 0.002 µM)
# Method in brief: as §1
Cell Line,relative viability ([1]; first compound 0.00128 µM),relative viability ([1]; first compound 0.004048 µM),relative viability ([1]; first compound 0.0128 µM),relative viability ([1]; first compound 0.128 µM),relative viability ([2]; first compound 0.00128 µM),relative viability ([2]; first compound 0.004048 µM),relative viability ([2]; first compound 0.0128 µM),relative viability ([2]; first compound 0.128 µM),relative viability ([3]; first compound 0.00128 µM),relative viability ([3]; first compound 0.004048 µM),relative viability ([3]; first compound 0.0128 µM),relative viability ([3]; first compound 0.128 µM),relative viability ([4]; first compound 0.00128 µM),relative viability ([4]; first compound 0.004048 µM),relative viability ([4]; first compound 0.0128 µM),relative viability ([4]; first compound 0.128 µM),relative viability ([1]; first compound 0.04048 µM),relative viability ([2]; first compound 0.04048 µM),relative viability ([3]; first compound 0.04048 µM),relative viability ([4]; first compound 0.04048 µM)
HCC-827,0.698,0.755,0.769,0.331,1.03,1.05,0.997,0.899,0.283,0.264,0.257,0.218,0.962,0.995,1.04,0.849,,,,
HOP-62,0.445,0.411,0.22,0.0948,0.907,1.04,1.1,0.38,0.409,0.314,0.271,0.109,0.701,0.725,0.748,0.117,0.171,0.939,0.127,0.46
LC-2-ad,0.751,0.728,0.643,0.225,0.955,0.863,0.747,0.0846,0.298,0.257,0.248,0.209,0.97,1.05,0.665,0.105,0.475,0.167,0.219,0.119
LCLC-97TM1,0.423,0.359,0.406,0.255,0.204,0.294,0.235,0.161,0.188,0.204,0.186,0.116,0.431,0.614,0.249,0.0923,0.302,0.26,0.206,0.125
LCLC-103H,0.841,0.745,0.755,0.831,1.05,0.974,0.998,1.11,0.452,0.48,0.461,0.61,1.02,1.17,1.02,1.09,0.823,0.996,0.557,1.13
LOU-NH91,0.894,0.759,0.546,0.386,0.66,0.592,0.532,0.34,0.392,0.371,0.304,0.371,0.483,0.512,0.394,0.381,0.395,0.446,0.302,0.401
LU99A,0.271,0.26,0.237,0.162,0.564,0.535,0.477,0.165,0.175,0.184,0.165,0.111,1.06,1.05,0.672,0.119,0.165,0.4,0.188,0.445
LXF-289,1.06,0.936,0.889,0.135,1.07,1.03,0.882,0.118,0.889,0.874,0.575,0.0927,0.99,0.994,0.815,0.108,0.817,0.647,0.201,0.478
NCI-H23,0.364,0.296,0.155,0.107,0.717,0.472,0.434,0.148,0.564,0.735,0.442,0.147,0.92,0.635,0.232,0.127,0.109,0.2,0.202,0.168
NCI-H322M,0.781,0.857,0.409,0.414,0.826,0.865,0.796,0.382,0.659,0.652,0.42,0.366,1.28,1.38,1.35,0.493,0.418,0.548,0.348,0.929
NCI-H441,0.555,0.547,0.208,0.124,0.625,0.61,0.236,0.145,0.255,0.28,0.284,0.125,0.506,0.395,0.199,0.14,0.135,0.172,0.106,0.181
NCI-H460,0.476,0.318,0.0627,0.0462,0.544,0.214,0.0127,0.0122,0.0582,0.0712,0.0849,0.0362,1.03,0.677,0.0227,0.0128,0.0448,0.0124,0.0247,0.0175
NCI-H520,0.34,0.232,0.162,0.12,0.993,0.838,0.839,0.132,0.604,0.7,0.261,0.129,0.512,0.58,0.251,0.0925,0.136,0.155,0.127,0.14
NCI-H596,0.784,0.739,0.674,0.371,0.479,0.648,0.564,0.358,0.558,0.542,0.508,0.337,0.991,0.974,1.09,0.844,0.48,0.454,0.505,0.994
NCI-H647,0.575,0.237,0.0687,0.0642,1.29,0.605,0.0949,0.0714,0.203,0.179,0.102,0.0923,0.912,0.761,0.0902,0.0699,0.0686,0.107,0.0945,0.1
NCI-H650,0.392,0.355,0.412,0.0846,1.19,1.09,1.26,0.326,1.03,0.895,0.91,0.236,0.78,0.99,0.669,0.204,0.212,0.855,0.657,0.236

# From the supplement of paper PMC10307832
